Experiments:
HT-29 cells = experiment: Colony forming assay, HT-29
SH-SY5Y cells = experiment: Cytoprotection against rotenone/oligomycin A, co-incubation, MTT; assay type: cell-based, human; details: co-incubation with rotenone/oligomycin A, 0.001 µM
Experimental: In the co-incubation assay, compounds and mixture of R/O were incubated together for 24 h. […] It turned out that none of the compounds (apart from 1i at the concentration of 0.001 µM and cytoprotection of 2.99%) had cytoprotective properties in the whole range of concentrations (Fig. 17). Compounds were not able to capture free radicals; therefore they cannot be classified as free-radical scavengers.

SMILES	Number of colonies expressed as percent of control number (HT-29 cells; compound at 1/2IC50)	Number of colonies expressed as percent of control number (HT-29 cells; compound at 2xIC50)	Number of colonies expressed as percent of control number (HT-29 cells; compound at IC50)	Cytoprotection (SH-SY5Y cells)
O=C(NCCCCNc1c2c(nc3ccccc13)CCCC2)c1ccccc1I [Compound 1c]	10.06%	0%	4.38%	
O=C(NCCCCNc1c2c(nc3ccccc13)CCCC2)c1ccc(I)cc1 [Compound 1i]				2.99%

From paper PMC6745035, “Novel tetrahydroacridine derivatives with iodobenzoic moieties induce G0/G1 cell cycle arrest and apoptosis in A549 non-small lung cancer and HT-29 colorectal cancer cells” (Molecular and Cellular Biochemistry, 2019)
